Assay results as given in patent publication US9408848B2, “Fluorescent CDK inhibitors for treatment of cancer” (Georgetown University, priority 2008, dated 2016).
Entries after “also recorded” stand apart in the source; their conditions may differ. Like-named read-outs stand apart in the source and are kept apart here.

Columns and labels:
[1] = test system: MCF-7; assay: Cell viability assay (WST-1); format: cell-based, human; conditions: MCF-7, WST-1, 48 h
Experimental: (§1) (10%), 2 mM L-glutamine, and 50 μg/mL each of antibiotics, namely penicillin, streptomycin, and neomycin at 37° C. in a humidified incubator containing 5% CO2
(§2) Briefly human breast cancer cells were seeded into a 96-well plate at 3000 cells per well in DMEM containing 10% FBS. Following 24 hours attachment period, compounds were dissolved in DMSO and serially diluted in tissue culture media and added to the cells in triplicate, and incubated for 48 h at 37° C. Control cells were treated with equal amount of DMSO. After 48 h incubation, cell viability was measured by WST-1 assay according to the manufacturer's instructions (Roche). […] The formazan absorbance, which correlates to the number of living cells, was measured at 450 nm and 630 nm as reference filter using a microplate reader. (Ultramark, Microplate Imaging System, Bio-Rad). The IC50 was calculated from the graph of the log of the compound concentration versus the fraction of the surviving cells.

[2] = test system: MDA-MB-231; assay: Cell viability assay (WST-1); format: cell-based, human; conditions: read-out: IC50 (concentration yielding 50% growth inhibition), MDA-MB-231, WST-1, 48 h
Experimental: as §1, §2

[3] = test system: CL 10.3; assay: Effect on multidrug resistant cell lines, IC50 72 hours; format: cell-based; conditions: for IC50: 72 h, CL 10.3, Breast (MDR); for CL 10.3 IC50/MCF-7 IC50: ratio, 72 hours; for activity in multidrug resistance cell line: MCF7 versus CL 10.3
From the text: (§3) The effect of VMY-1-103 on multidrug resistant cell lines was studied and compared with paclitaxel. Table 4 represents the IC50 of the compounds in the individual cell lines along with the ratio of the difference.

[4] = test system: MCF-7; assay: as above; format: cell-based; conditions: Homo sapiens, MCF7, 72 h; MCF-7, Breast
From the text: as §3

[5] = target: T1, CDK1/cyclinB (Homo sapiens, UniProt P06493); assay: Kinase assay ([γ-33P]-ATP, histone H1); format: biochemical; conditions: 0.1 µM
T1 construct: purchased Millipore, Dundee, UK (screening service)
T1 sequence (P06493 whole entry): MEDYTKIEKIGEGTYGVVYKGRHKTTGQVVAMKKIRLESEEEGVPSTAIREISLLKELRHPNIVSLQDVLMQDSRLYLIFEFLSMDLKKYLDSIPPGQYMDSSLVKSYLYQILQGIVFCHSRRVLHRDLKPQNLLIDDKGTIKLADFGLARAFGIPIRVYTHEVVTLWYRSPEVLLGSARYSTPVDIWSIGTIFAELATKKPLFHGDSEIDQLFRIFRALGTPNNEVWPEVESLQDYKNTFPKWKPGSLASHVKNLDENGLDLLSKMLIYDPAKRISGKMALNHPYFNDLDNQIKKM
T1 sequence (P14635 whole entry partner): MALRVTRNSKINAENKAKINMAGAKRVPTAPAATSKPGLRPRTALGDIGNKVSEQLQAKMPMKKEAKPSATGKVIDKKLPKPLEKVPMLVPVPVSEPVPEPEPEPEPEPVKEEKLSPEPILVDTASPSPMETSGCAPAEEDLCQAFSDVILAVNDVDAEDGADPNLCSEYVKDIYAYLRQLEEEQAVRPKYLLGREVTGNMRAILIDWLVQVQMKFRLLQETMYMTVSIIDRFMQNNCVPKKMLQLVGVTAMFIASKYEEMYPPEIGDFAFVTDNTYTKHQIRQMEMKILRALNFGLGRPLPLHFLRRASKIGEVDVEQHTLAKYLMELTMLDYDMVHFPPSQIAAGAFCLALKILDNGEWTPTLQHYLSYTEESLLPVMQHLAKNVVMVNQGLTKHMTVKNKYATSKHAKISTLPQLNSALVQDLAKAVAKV
Experimental: (§4) The final reaction was carried out in a 25 μL solution.
(§5) Briefly assays were performed with a Biomek 2000 Laboratory Automation Workstation in a 96-well format (Beckman instruments, Palo Alto, Calif., U.S.A) for 40 min at ambient temperature in 25 μL incubations using [γ-^33P]-ATP. In a final reaction volume of 25 μL corresponding CDK/cyclin (h) (5-10 mU) was incubated with 8 mM MOPS pH 7.0, 0.2 mM EDTA, 0.1 mg/mL histone H1, 10 mM MgAcetate and [γ-^33P-ATP](specific activity approx. 500 cpm/pmol, concentration as required). The reaction was initiated by the addition of the MgATP mix. After incubation for 40 min at room temperature, the reaction was stopped by the addition of 5 μL of a 3% phosphoric acid solution.

[6] = target: T2, CDK3/cyclinE (Homo sapiens, UniProt Q00526); assay: Kinase assay ([γ-33P]-ATP, histone H1); format: biochemical; conditions: compound 0.1 μM
T2 construct: purchased Millipore, Dundee, UK (screening service)
T2 sequence (Q00526 whole entry): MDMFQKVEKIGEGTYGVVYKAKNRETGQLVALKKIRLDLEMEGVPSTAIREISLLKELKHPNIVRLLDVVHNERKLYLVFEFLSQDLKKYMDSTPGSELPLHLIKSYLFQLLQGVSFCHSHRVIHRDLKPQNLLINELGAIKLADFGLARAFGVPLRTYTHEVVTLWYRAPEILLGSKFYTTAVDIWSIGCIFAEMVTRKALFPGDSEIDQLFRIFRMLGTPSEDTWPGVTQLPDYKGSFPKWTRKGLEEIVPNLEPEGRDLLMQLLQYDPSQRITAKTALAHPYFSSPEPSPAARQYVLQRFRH
T2 sequence (P24864 whole entry partner): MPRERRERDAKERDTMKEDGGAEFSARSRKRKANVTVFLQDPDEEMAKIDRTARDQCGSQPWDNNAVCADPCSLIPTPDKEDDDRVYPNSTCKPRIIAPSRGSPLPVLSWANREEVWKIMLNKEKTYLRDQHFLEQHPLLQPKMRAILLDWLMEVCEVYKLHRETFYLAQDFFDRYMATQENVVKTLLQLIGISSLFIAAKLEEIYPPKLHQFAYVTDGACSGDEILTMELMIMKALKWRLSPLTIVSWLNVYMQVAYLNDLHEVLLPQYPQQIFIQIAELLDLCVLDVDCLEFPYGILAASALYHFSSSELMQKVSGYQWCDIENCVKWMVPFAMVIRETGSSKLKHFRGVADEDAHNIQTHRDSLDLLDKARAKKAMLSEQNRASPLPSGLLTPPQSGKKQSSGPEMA
Experimental: as §4, §5

[7] = target: T3, CDK7/cyclinH/MATI (Homo sapiens, UniProt P50613); assay: Kinase assay ([γ-33P]-ATP, histone H1); format: biochemical; conditions: for inhibition at 0.1 µM: read-out: % inhibition of kinase activity, CDK7/cyclinH/MATI
T3 construct: purchased Millipore, Dundee, UK (screening service)
T3 sequence (P50613 whole entry): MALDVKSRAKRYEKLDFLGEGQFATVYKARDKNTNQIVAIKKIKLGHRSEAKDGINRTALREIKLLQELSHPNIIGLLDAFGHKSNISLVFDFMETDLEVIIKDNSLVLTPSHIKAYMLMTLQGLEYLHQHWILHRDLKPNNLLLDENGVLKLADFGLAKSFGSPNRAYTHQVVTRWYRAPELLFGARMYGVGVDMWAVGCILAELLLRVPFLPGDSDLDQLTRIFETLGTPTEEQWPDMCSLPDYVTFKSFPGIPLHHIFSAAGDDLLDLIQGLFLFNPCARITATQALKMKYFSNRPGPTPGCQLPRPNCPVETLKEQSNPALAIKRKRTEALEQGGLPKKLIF
T3 sequence (P51946 whole entry partner): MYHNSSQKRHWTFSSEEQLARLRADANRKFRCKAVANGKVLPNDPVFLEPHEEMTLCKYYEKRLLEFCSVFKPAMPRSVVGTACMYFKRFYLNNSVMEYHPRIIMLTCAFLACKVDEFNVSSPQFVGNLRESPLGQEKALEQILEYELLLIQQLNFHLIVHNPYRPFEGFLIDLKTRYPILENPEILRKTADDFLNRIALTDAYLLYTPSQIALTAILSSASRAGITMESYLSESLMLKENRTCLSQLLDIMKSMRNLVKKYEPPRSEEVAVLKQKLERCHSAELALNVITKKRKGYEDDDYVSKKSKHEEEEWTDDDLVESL
T3 sequence (P51948 whole entry partner): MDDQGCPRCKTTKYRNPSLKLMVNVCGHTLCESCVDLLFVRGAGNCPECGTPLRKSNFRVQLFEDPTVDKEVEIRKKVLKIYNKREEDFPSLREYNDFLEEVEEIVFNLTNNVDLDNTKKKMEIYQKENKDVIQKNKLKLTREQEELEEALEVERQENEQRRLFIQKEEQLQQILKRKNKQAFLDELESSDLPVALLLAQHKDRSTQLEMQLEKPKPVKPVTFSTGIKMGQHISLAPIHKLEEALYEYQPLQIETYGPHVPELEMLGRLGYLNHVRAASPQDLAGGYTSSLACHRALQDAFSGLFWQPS
Experimental: . The final reaction was carried out in a 25 μL solution. The respective kinases (at […] were incubated with 8 mM MOPS (pH 7.0), 0.2 mM EDTA, 0.1 mg/ml histone H1, 10 mM MgAcetate and [γ-33P-ATP] (specific activity approximately 500 cpm/pmol, concentration as required). The reaction was then initiated by the addition of the MgATP mix. The reaction was stopped after 40 min of incubation by adding 5 μL of a 3% phosphoric acid solution. 10 μL of the reaction was spotted onto a P30 filter mat and washed 3 times for 5 min in 75 mM phosphoric acid and one in methanol prior to drying and counted radioactivity by scintillation counting. […]. Table 1 summarizes the cytotoxic effects of VMY compounds and its controls on breast cancer cell line.
as §5, with “Kinase selectivity of compounds VMY-1-101 and VMY-1-103 were screened at Millipore, Dundee, UK. Briefly” for “Briefly”, “solution. From the reaction, 10 μL was spotted onto a P30 filtermat and washed three times for 5 minutes in 75 mM phosphoric acid and once in methanol prior to dying and scintillation counting.” for “solution.”

[8] = test system: MCF-7; assay: Cell cycle analysis by flow cytometry (propidium iodide); format: cell-based, human; conditions: for % G1 / % S / % Sub-G1: MCF-7, 24 hrs, 5 μM
Experimental: (§6) 5 μM concentrations were used for all drugs tested. The cells were exposed to the vehicle (DMSO) or […] of the CDK inhibitors for 24 hrs. The cell cycle distribution was then assessed using standard procedures.

[9] = test system: MDA-MB-231; assay: as above; format: cell-based, human; conditions: for % G1 / % S / % Sub-G1: MDA-MB-231, 24 hrs, 5 μM
Experimental: as §6

[10] = test system: phospho-Cdc2; assay: Western blot of G2/M cell cycle proteins; format: cell-based, human; conditions: MDA-MB-231, 10 μM, 1-24 h
Experimental: The expression levels principal component proteins, such as, phospho-Cdc2, Cdc2 and cyclin B were specific assessed.
Western blotting was performed according to literature procedure. […] Lysates were cleared by centrifugation at 12000 rpm for 15 min at 4° C. and protein was estimated by detergent compatible BCA protein assay kit (Pierce). Equivalent amounts of total proteins were resolved by SDS-PAGE (10%) and transferred to PVDF membrane. Membranes were blocked by 5% non-fat powdered milk in TBST overnight. Membranes were incubated with indicated primary antibodies for 2 hours followed by HRP-conjugated secondary antibodies for 1 hr and developed using enhanced chemiluminescence kit (Perkin Elmer).

[11] = test system: MDA-MB-231 cells; assay: Apoptotic signaling, Western blot of apoptosis related proteins; format: cell-based, human
Experimental: In order to understand whether VMY-1-101 and VMY-1-103 compounds were able to induce apoptotic cell death, the expression of anti- and pro-apoptotic proteins in MDA-MB-231 cells following treatment with 10 μM drugs for 48 hours was evaluated first. […] This is further confirmed with proapoptotic 116 kDa poly (ADP-ribose) polymerase protein (PARP) into its 89-kDa fragments. […].
Western blotting was performed according to literature procedure. In brief, cell pellets were collected at the indicated times after treatment with compounds, suspended in 100 μL of lysis buffer (50 mM Tris-HCl, 150 mM NaCl, 1 mM EGTA, 1 mM EDTA, 20 mM NaF, 100 mM Na3VO4, 0.5% NP-40, 1% Triton X-100, 1 mM PMSF, 5 μg/ml aprotinin, 5 μg/ml leupeptin), vortexed twice and incubated in an ice bath for 30 min. Lysates were cleared by centrifugation at 12000 rpm for 15 min at 4° C. and protein was estimated by detergent compatible BCA protein assay kit (Pierce). Equivalent amounts of total proteins were resolved by SDS-PAGE (10%) and transferred to PVDF membrane. Membranes were blocked by 5% non-fat powdered milk in TBST overnight. Membranes were incubated with indicated primary antibodies for 2 hours followed by HRP-conjugated secondary antibodies for 1 hr and developed using enhanced chemiluminescence kit (Perkin Elmer).

[12] = test system: MDA-MB-231 cells; assay: Reversibility of antiproliferative effect (24 h/MC/48 h, cell cycle by flow cytometry); conditions: MDA-MB-231, 5 μM and 10 μM, 24 h then 48 h drug free medium
Experimental: The cell cycle distribution was then analyzed by flow cytometry.
The effect of CDK inhibitors on cell cycle progression was analyzed by flow cytometry. […] Cells were trypsinized, centrifuged (2000 rpm) and cell pellets were collected. […] The cell cycle distribution was evaluated on DNA plots using the Modfit software (Verity softwarehouse, Topsham, Me.).

Structure (SMILES)	IC50 ([2]; Homo sapiens) [µM]	IC50 [3] [µM]	CL 10.3 IC50/MCF-7 IC50 [3]	IC50 [4] [µM]	% G1 [8] [%]	% S [8] [%]	% Sub-G1 [8] [%]	% G1 [9] [%]	% S [9] [%]	% Sub-G1 [9] [%]	expression of phospho-Cdc2 (T161, Y15) [10]	further results
CN(C)c1cccc2c(S(=O)(=O)NCCN)cccc12 [Dansyl ethylenediamine, reference compound]	> 100	–	–	–	–	–	–	–	–	–	–	IC50 ([1]; Homo sapiens, MCF7, read-out: IC50 (concentration yielding 50% growth inhibition)): > 100 µM
CC(=O)O[C@H]1C(=O)[C@@]2(C)[C@H]([C@H](OC(=O)c3ccccc3)[C@]3(O)C[C@H](OC(=O)[C@H](O)[C@@H](NC(=O)c4ccccc4)c4ccccc4)C(C)=C1C3(C)C)[C@]1(OC(C)=O)CO[C@@H]1C[C@@H]2O [Paclitaxel, reference compound]	–	47.5	2375	0.002	–	–	–	–	–	–	–	–
CC(C)[C@H](CO)Nc1nc(Nc2ccc(C(=O)O)c(Cl)c2)c2ncn(C(C)C)c2n1 [Purvalanol B, reference compound]	–	–	–	–	64.37 ± 0.57	20.54 ± 0.57	1.10 ± 0.03	58.69 ± 0.54	29.86 ± 0.70	1.19 ± 0.01	no affect on the phospho-Cdc2 expression; also recorded: does not show any affect on expression of phosphor-Cdc2	% inhibition of kinase activity, CDK1/cyclinB [5]: 78 ± 6%; % inhibition of kinase activity, CDK3/cyclinE [6]: 89 ± 0%; % inhibition of kinase activity, CDK7/cyclinH/MATI ([7]; compound 0.1 μM): 66 ± 1%; IC50 ([1]; read-out: IC50 (concentration yielding 50% growth inhibition)): > 100 µM; IC50 [2]: > 100 µM
CC[C@H](CO)Nc1nc(NCc2ccccc2)c2ncn(C(C)C)c2n1 [Roscovitine, 2-(R)-(1-ethyl-2-hydroxyethylamino)-6-benzylamino-9-isopropylpurine, reference compound]	–	–	–	–	63.83 ± 0.58	19.88 ± 0.74	0.73 ± 0.02	57.59 ± 0.44	26.29 ± 0.32	1.22 ± 0.06	–	inhibition at 0.1 µM [7]: 26 ± 5%; change in apoptosis protein levels ([11]; MDA-MB-231, even at 40 μM): no change in protein levels; reversibility of G2/M arrest / antiproliferative effect [12]: went back to the normal stage after post incubation
CC(C)[C@H](CO)Nc1nc(Nc2ccc(C(=O)NCCNS(=O)(=O)c3cccc4c(N(C)C)cccc34)c(Cl)c2)c2ncn(C(C)C)c2n1 [VMY-1-103, 2-Chloro-N-[2-(5-dimethylamino-naphthalene-1-sulfonylamino)-ethyl]-4-[2-(1-hydroxymethyl-2-methyl-propylamino)-9-isopropyl-9H-purin-6-ylamino]-benzamide]	4.06 ± 1.32	44.3	9.8	4.5	61.02 ± 0.28	16.26 ± 0.24	2.09 ± 0.08	51.87 ± 0.80	25.15 ± 0.53	2.17 ± 0.18	decrease the phosphorylation level of G2/M checkpoint proteins; also recorded: time-dependent decrease in expression of phospho-Cdc2	inhibition at 0.1 µM ([7]; compound 0.1 μM): 69 ± 2%; effect on cell cycle progression (G2/M phase) ([8]; MCF-7, 5, 10 μM, 24 hrs): induced the cell cycle progression in G2/M phase; effect on cell cycle progression (G2/M phase) ([9]; MDA-MB-231, 5, 10 μM, 24 hrs): induced the cell cycle progression in G2/M phase; activity in multidrug resistance cell line [3]: moderate activity in a multidrug resistance cell line; activity in multidrug resistance cell line ([3]; listed as VMY-103): comparable activity in both cell lines; substrate for p-glycoprotein ([3]; inferred from MDR cell line (Table 4)): not a substrate for p-glycoprotein; PARP cleavage ([11]; MDA-MB-231, 10 μM, 48 hours): moderate cleavage of the 116-kDa full length PARP into an 89-kDa fragment; protein level of full length caspase 3 and 7 ([11]; MDA-MB-231, 10 μM, 48 hours): decrease in protein level of full length caspase 3 and 7
